Measured values taken from PubChem BioAssay AID2060610 (Molecular Pharmacology Branch, DTP, NCI, 2025).
pIC50: −log10 of the molar value. Where “and” joins values, the source holds several entries; their conditions need not be identical. Equal entries are not always repeated. Each block holds one compound with its values, some of them ahead of it.

Test system: 616215-338-R-J1-PDC complex spheroids, viability % test/control
Assay: Anticancer human tumor 616215-338-R-J1-PDC patient-derived colon adenocarcinoma cell line growth inhibition [CLK]
Conditions: for viability, T/C: stronger effect = lower value
Excerpt: A high-throughput screen of multi-cell type tumor spheroids was designed to identify active combinations of […] and targeted small molecules. Complex spheroids include a stromal component modeled by human endothelial cells (HUVEC) and fibroblasts modeled by human mesenchymal stem cells (MSCs). The concentration ranges selected for each drug and investigational agent were based upon clinically achievable concentrations if the clinical Cmax of the agent was known.
Compounds. The drugs and investigational agents: cirtuvivint (SM08502; NSC835563), CC-671 (NSC850746), vemurafenib (NSC761431), tapotoclax (NSC804041), sotorasib (NSC818433), adagrasib (NSC831453), MRTX-1133 (NSC836407), BAY2416964 (NSC825713), copanlisib (NSC816437), inavolisib (NSC800729), abemaciclib (NSC768073), osimertinib (NSC779217), entinostat (NSC756642), eltanexor (KPT-8602, NSC794443), venetoclax (NSC766270), ceralasertib (NSC777638), bortezomib (NSC756655), olaparib (NSC753686), talazoparib (NSC767125), alisertib (NSC759677), peposertib (NSC802822), gemcitabine (NSC613327), 5-fluorouracil (NSC19893), SN-38 (NSC673596), oxaliplatin (NSC266046), paclitaxel (NSC125973), and doxorubicin (NSC123127), were obtained from the National Cancer Institute (NCI) Developmental Therapeutics Program Chemical Repository. The FDA-approved anticancer drug set is available from the Developmental Therapeutics Program at https://dtp.cancer.gov/organization/dscb/obtaining/available plates.htm. […] The stock solutions were prepared in dimethyl sulfoxide (DMSO, Sigma-Aldrich, St. Louis, MO, cat. D2650), except for the platinum complexes which were prepared in saline (Quality Biological, Gaithersburg, MD, cat. 114-055-101), at 800-fold the tested concentration and stored at -70 degrees C prior to their use. All drugs and investigational agents were tested over a range starting from a high concentration at or near the clinical Cmax and decreasing in half-log increments. If the clinical Cmax for an agent had not been determined, the highest concentration tested was 10 microM.
Cell Culture. All cells were maintained in an incubator at 37 degrees C and 5% CO2 with 95% humidity. The PDC lines were cultured according to standard operating procedures established by the NCI PDMR. Briefly, all PDCs were thawed and cultured in Matrigel-coated flasks prepared with a working solution of 1X Ham's F-12 nutrient mix, without supplementation (Invitrogen, Waltham, MA, cat. 11765054), 100 U/mL penicillin-streptomycin (Invitrogen, cat. 15140122), and 2.5% Matrigel (Corning Inc., Corning, NY, cat. 354248) for the first three passages. The 947758-054-R-J2-PDC line was cultured in 6B/Colon 1A media, which includes advanced DMEM/F-12 (Thermo Fisher Scientific, cat. 12634028), 10 mM HEPES (Thermo Fisher Scientific, cat. 15630080), 1X GlutaMAX supplement (Thermo Fisher Scientific, cat. 35050061), 0.1 mg/mL primocin (InvivoGen, cat. ant-pm-2), 10% defined fetal bovine serum, heat inactivated (HyClone Laboratories Inc., cat. SH30070.03HI), 1.25 mM N-Acetyl-L-cysteine (Sigma-Aldrich, cat. A9165), 10 mM nicotinamide (Sigma-Aldrich, cat. N0636), 1X B-27 supplement (Thermo Fisher Scientific, cat. 17504044), 1X N-2 supplement (Thermo Fisher Scientific, cat. 17502048), and 10 microM Y-27632 dihydrochloride (Tocris Bioscience, cat. 1254). The 876862-298-R-J1-PDC was cultured in 6E media, which includes all 6B/Colon 1A media components plus 50% L-WRN conditioned media (ATCC, cat. CRL-3276), 50 ng/mL recombinant human EGF recombinant protein (hEGF; Thermo Fisher Scientific, cat. PHG0311), 10 ng/mL recombinant human fibroblast growth factor 10 (hGFG-10; PeproTech, cat. 100-26), 1 ng/mL recombinant human fibroblast growth factor 2 (hFGF-2; PeproTech, cat. 100-18B), and 1 µM prostaglandin E2 (PGE2; Tocris, cat. 2296). The 227483-062-R1-J1-PDC line was cultured in Panc media, containing all 6E components except hFGF-2, with the addition of 500 nM SB-431542 (Selleckchem, cat. S1067) and 10 nM gastrin (Tocris, cat. 3006). […]

[1] = curve of first compound, second compound 0.0316 µM
[2] = curve of first compound, second compound 0.1 µM
[3] = curve of first compound, second compound 0.316 µM
[4] = curve of first compound, second compound 1 µM
[5] = curve of first compound, second compound 3.16 µM
[6] = curve of first compound, second compound 10 µM
[7] = second compound 0.0316 µM, first compound 0.0316 µM
[8] = second compound 0.0316 µM, first compound 0.1 µM
[9] = second compound 0.0316 µM, first compound 0.316 µM
[10] = second compound 0.0316 µM, first compound 1 µM
[11] = second compound 0.1 µM, first compound 0.0316 µM
[12] = second compound 0.1 µM, first compound 0.1 µM
[13] = second compound 0.1 µM, first compound 0.316 µM
[14] = second compound 0.1 µM, first compound 1 µM
[15] = second compound 0.316 µM, first compound 0.0316 µM
[16] = second compound 0.316 µM, first compound 0.1 µM
[17] = second compound 0.316 µM, first compound 0.316 µM
[18] = second compound 0.316 µM, first compound 1 µM
[19] = second compound 1 µM, first compound 0.0316 µM
[20] = second compound 1 µM, first compound 0.1 µM
[21] = second compound 1 µM, first compound 0.316 µM
[22] = second compound 1 µM, first compound 1 µM
[23] = second compound 3.16 µM, first compound 0.0316 µM
[24] = second compound 3.16 µM, first compound 0.1 µM
[25] = second compound 3.16 µM, first compound 0.316 µM
[26] = second compound 3.16 µM, first compound 1 µM
[27] = second compound 10 µM, first compound 0.0316 µM
[28] = second compound 10 µM, first compound 0.1 µM
[29] = second compound 10 µM, first compound 0.316 µM
[30] = second compound 10 µM, first compound 1 µM
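Also: spheroids exposed to agents for 7 days.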
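For viability, T/C in this document: 100% = DMSO vehicle wells.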

pIC50 (curve of compound): 5.43 and 5.27
SMILES: Nc1ccccc1NC(=O)c1ccc(CNC(=O)OCc2cccnc2)cc1
viability, T/C (compound 0.0316 µM): 102% and 86.2%
viability, T/C (compound 0.1 µM): 98.2% and 95.1%
viability, T/C (compound 0.316 µM): 101% and 81.6%
viability, T/C (compound 1 µM): 107% and 92.8%
viability, T/C (compound 3.16 µM): 55.6% and 80.4%
viability, T/C (compound 10 µM): 13.5% and 14.7%

SMILES: CCN1CCN(Cc2ccc(Nc3ncc(F)c(-c4cc(F)c5nc(C)n(C(C)C)c5c4)n3)nc2)CC1 + CN1CCN(c2cc(C(=O)Nc3cc4cc(-c5cnn(C)c5)ccc4cn3)ccn2)CC1
pIC50 [1]: 6.02
pIC50 [2]: 6.05
pIC50 [3]: > 8.50
pIC50 [4]: > 8.50
pIC50 [5]: > 8.50
pIC50 [6]: > 8.50
viability, T/C (second compound 0.0316 µM, first compound 0.00316 µM): 111%
viability, T/C (second compound 0.0316 µM, first compound 0.01 µM): 105%
viability, T/C [7]: 112%
viability, T/C [8]: 149%
viability, T/C [9]: 175%
viability, T/C [10]: 46.2%
viability, T/C (second compound 0.1 µM, first compound 0.00316 µM): 114%
viability, T/C (second compound 0.1 µM, first compound 0.01 µM): 131%
viability, T/C [11]: 116%
viability, T/C [12]: 154%
viability, T/C [13]: 120%
viability, T/C [14]: 41.6%
viability, T/C (second compound 0.316 µM, first compound 0.00316 µM): 32.6%
viability, T/C (second compound 0.316 µM, first compound 0.01 µM): 32.6%
viability, T/C [15]: 37.6%
viability, T/C [16]: 48.6%
viability, T/C [17]: 42.6%
viability, T/C [18]: 12.8%
viability, T/C (second compound 1 µM, first compound 0.00316 µM): 0.15%
viability, T/C (second compound 1 µM, first compound 0.01 µM): 0.73%
viability, T/C [19]: 1.7%
viability, T/C [20]: 0.2%
viability, T/C [21]: 2.07%
viability, T/C [22]: 1.73%
viability, T/C (second compound 3.16 µM, first compound 0.00316 µM): 0.15%
viability, T/C (second compound 3.16 µM, first compound 0.01 µM): 0.16%
viability, T/C [23]: 0.15%
viability, T/C [24]: 0.13%
viability, T/C [25]: 0.76%
viability, T/C [26]: 0.18%
viability, T/C (second compound 10 µM, first compound 0.00316 µM): 0.2%
viability, T/C (second compound 10 µM, first compound 0.01 µM): 0.19%
viability, T/C [27]: 2.8%
viability, T/C [28]: 0.2%
viability, T/C [29]: 3.09%
viability, T/C [30]: 0.2%

pIC50 (curve of compound): < 5.00
SMILES: C=CC(=O)N1CCN(c2nc(=O)n(-c3c(C)ccnc3C(C)C)c3nc(-c4c(O)cccc4F)c(F)cc23)C(C)C1 (stereo not given)
viability, T/C (compound 0.0316 µM): 95.4% and 104%
viability, T/C (compound 0.1 µM): 101% and 108%
viability, T/C (compound 0.316 µM): 106% and 119%
viability, T/C (compound 1 µM): 112% and 98.6%
viability, T/C (compound 3.16 µM): 108% and 110%
viability, T/C (compound 10 µM): 106% and 113%

pIC50 (curve of compound): 7.70 and 7.76
SMILES: CCc1c2c(nc3ccc(O)cc13)-c1cc3c(c(=O)n1C2)COC(=O)[C@]3(O)CC
viability, T/C (compound 0.00316 µM): 110% and 111%
viability, T/C (compound 0.01 µM): 69.5% and 63.4%
viability, T/C (compound 0.0316 µM): 36.6% and 33.2%
viability, T/C (compound 0.1 µM): 17.5% and 24.2%
viability, T/C (compound 0.316 µM): 11% and 16.1%
viability, T/C (compound 1 µM): 5.51% and 7.45%

pIC50 [1]: < 5.00
pIC50 [2]: > 7.50
pIC50 [3]: > 7.50
pIC50 [4]: > 7.50
pIC50 [5]: > 7.50
pIC50 [6]: > 7.50
SMILES: COc1ccc([C@@H](O)c2cc(-c3ncnc4cc(N5CCOCC5)ccc34)c(F)cc2Cl)nn1 + CNC(=O)c1ccc(Nc2nc(OC3CCCC3)c3c(-c4ccc5nc(C)oc5c4)c[nH]c3n2)c(OC)c1
viability, T/C [7]: 90.8%
viability, T/C [8]: 103%
viability, T/C [9]: 99.1%
viability, T/C [10]: 100%
viability, T/C (second compound 0.0316 µM, first compound 3.16 µM): 114%
viability, T/C (second compound 0.0316 µM, first compound 10 µM): 72.5%
viability, T/C [11]: 45.1%
viability, T/C [12]: 45.4%
viability, T/C [13]: 43.4%
viability, T/C [14]: 45.3%
viability, T/C (second compound 0.1 µM, first compound 3.16 µM): 43.2%
viability, T/C (second compound 0.1 µM, first compound 10 µM): 28.8%
viability, T/C [15]: 46.3%
viability, T/C [16]: 43.5%
viability, T/C [17]: 39.4%
viability, T/C [18]: 37.9%
viability, T/C (second compound 0.316 µM, first compound 3.16 µM): 32.4%
viability, T/C (second compound 0.316 µM, first compound 10 µM): 28%
viability, T/C [19]: 40.1%
viability, T/C [20]: 39.9%
viability, T/C [21]: 38.9%
viability, T/C [22]: 38.8%
viability, T/C (second compound 1 µM, first compound 3.16 µM): 32.2%
viability, T/C (second compound 1 µM, first compound 10 µM): 22.6%
viability, T/C [23]: 49.7%
viability, T/C [24]: 43.7%
viability, T/C [25]: 41%
viability, T/C [26]: 32.6%
viability, T/C (second compound 3.16 µM, first compound 3.16 µM): 30.6%
viability, T/C (second compound 3.16 µM, first compound 10 µM): 20.8%
viability, T/C [27]: 49.1%
viability, T/C [28]: 41.5%
viability, T/C [29]: 38.8%
viability, T/C [30]: 37.1%
viability, T/C (second compound 10 µM, first compound 3.16 µM): 27.2%
viability, T/C (second compound 10 µM, first compound 10 µM): 19.1%
